Data published in patent US20240150334A1, “HSD17B13 INHIBITORS AND/OR DEGRADERS” (Pfizer Inc., priority 2022, published 2024).
Counter-ions that a name gives are not always drawn.

Target: wild type human HSD17B13 (Homo sapiens (Human), UniProt Q7Z5P4)
Assay: HEK_Beta-Est LCMS_IC50_Tekcel, whole-cell HEK-HSD17B13 inhibition assay, estrone production by LCMS
Type: cell-based
Details: geometric mean, HEK cells stably expressing wild type human HSD17B13, 25 μM FAC beta-estradiol, read-out: HEK_Beta-Est LCMS_IC50—Tekcel GMean IC50
Experimental: HEK_Beta-Est LCMS_IC50_Tekcel
Inhibition potency of test compounds was determined using a whole-cell HEK-HSD17B13 inhibition assay, utilizing a LCMS readout.
HSD17B13 uses the oxidized form of nicotinamide adenine dinucleotide (NAD+) as a cofactor during metabolism of beta-estradiol (substrate), converting NAD+ to the reduced form (NADH) and beta-estradiol to its product (estrone). Estrone production is quantified by LCMS, and used as a measure of HSD17B13 enzyme activity.
([…]: 5% CO2). […] Growth media was then removed from the cell plates and replaced with 10 μL of 2×FAC test compound, and incubated for 1 hour (with lid) at 37° C. […] The reaction was incubated for 2 hours (with lid) at 37° C. […] Amount of product (estrone) was then quantified by LCMS. Data expressed as product area ratio (PAR) were then normalized to control wells using Activity Base (IDBS). Zero percent effect (ZPE) was defined as PAR generated from uninhibited HSD17B13 (vehicle control).

Chain of wild type human HSD17B13 (Q7Z5P4 20-300): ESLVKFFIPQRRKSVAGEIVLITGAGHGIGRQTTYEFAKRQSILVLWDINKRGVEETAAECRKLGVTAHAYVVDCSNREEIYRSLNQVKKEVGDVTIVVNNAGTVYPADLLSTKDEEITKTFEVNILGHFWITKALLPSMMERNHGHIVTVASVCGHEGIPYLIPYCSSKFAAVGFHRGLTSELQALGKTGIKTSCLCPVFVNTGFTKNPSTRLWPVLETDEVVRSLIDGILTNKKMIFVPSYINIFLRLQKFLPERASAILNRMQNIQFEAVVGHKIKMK

| SMILES | IC50 [nM] |
| --- | --- |
| O=C(NC[C@H]1CC[C@H](n2cc3ccc(-c4nccs4)cc3n2)CC1)c1cc(F)c(O)c(F)c1 [Example 110, 3,5-difluoro-4-hydroxy-N-({(1r,4r)-4-[6-(1,3-thiazol-2-yl)-2H-indazol-2-yl]cyclohexyl}methyl) benzamide] | 110 |
| O=C(NC[C@H]1CC[C@H](c2nc(-c3cnc(C(F)(F)F)cn3)no2)CC1)c1cc(F)c(O)c(F)c1F [Example 148, 2,3,5-trifluoro-4-hydroxy-N-{[(1r,4r)-4-{3-[5-(trifluoromethyl)pyrazin-2-yl]-1,2,4-oxadiazol-5-yl}cyclohexyl]methyl} benzamide] | 470 |
| Cn1nc(-c2noc([C@]34CC[C@](CNC(=O)c5cc(F)c(O)c(F)c5F)(CC3)CC4)n2)ccc1=O [Example 168, 2,3,5-trifluoro-4-hydroxy-N-({4-[3-(1-methyl-6-oxo-1,6-dihydropyridazin-3-yl)-1,2,4-oxadiazol-5-yl]bicyclo[2.2.2]octan-1-yl}methyl) benzamide] | 380 |
| CC(C)(C)OC(=O)N[C@]12CC[C@](CNC(=O)c3cc(F)c(O)c(F)c3)(CC1)CC2 [Example 192, tert-butyl {4-[(3,5-difluoro-4-hydroxybenzamido)methyl]bicyclo[2.2.2]octan-1-yl}carbamate] | 480 |
| O=C(NC[C@H]1CC[C@H](n2cc3ccc(-c4cnsc4)cc3n2)CC1)c1cc(F)c(O)c(F)c1 [Example 100, 3,5-difluoro-4-hydroxy-N-({(1r,4r)-4-[6-(1,2-thiazol-4-yl)-2H-indazol-2-yl]cyclohexyl}methyl)benzamide] | 65 |
| Cn1cc(-c2ccc3cn([C@H]4CC[C@H](CNC(=O)c5cc(F)c(O)c(F)c5)CC4)nc3c2)nn1 [Example 79, 3,5-difluoro-4-hydroxy-N-({(1r,4r)-4-[6-(1-methyl-1H-1,2,3-triazol-4-yl)-2H-indazol-2-yl]cyclohexyl}methyl) benzamide] | 370 |
| O=C(NC[C@H]1CC[C@H](n2cc3ccc(-c4csc(N5CCOCC5)n4)cc3n2)CC1)c1cc(F)c(O)c(F)c1 [Example 114, 3,5-difluoro-4-hydroxy-N-{[(1r,4r)-4-{6-[2-(morpholin-4-yl)-1,3-thiazol-4-yl]-2H-indazol-2-yl}cyclohexyl]methyl} benzamide] | 170 |
| O=C(NC[C@H]1CC[C@H](n2cc3ccc(-c4cncs4)cc3n2)CC1)c1cc(F)c(O)c(F)c1 [Example 96, 3,5-difluoro-4-hydroxy-N-({(1r,4r)-[6-(1,3-thiazol-5-yl)-2H-indazol-2-yl]cyclohexyl}methyl)benzamide] | 85 |
| Cc1cc(-c2ccc3cn([C@H]4CC[C@H](CNC(=O)c5cc(F)c(O)c(F)c5)CC4)nc3c2)ncn1 [Example 87, 3,5-difluoro-4-hydroxy-N-({(1r,4r)-4-[6-(6-methylpyrimidin-4-yl)-2H-indazol-2-yl]cyclohexyl}methyl) benzamide] | 130 |
| Cc1nc(-c2ccc3cn([C@H]4CC[C@H](CNC(=O)c5cc(F)c(O)c(F)c5)CC4)nc3c2)cs1 [Example 94, 3,5-difluoro-4-hydroxy-N-({(1r,4r)-4-[6-(2-methyl-1,3-thiazol-4-yl)-2H-indazol-2-yl]cyclohexyl}methyl) benzamide] | 140 |
| O=C(NC[C@H]1CC[C@H](n2cc3ccc(-c4cc(C5CC5)ncn4)cc3n2)CC1)c1cc(F)c(O)c(F)c1 [Example 93, N-({(1r,4r)-4-[6-(6-cyclopropylpyrimidin-4-yl)-2H-indazol-2-yl]cyclohexyl}methyl)-3,5-difluoro-4-hydroxybenzamide] | 180 |
| O=C(NC[C@H]1CC[C@H](n2cc3ccc(-c4cnc5[nH]ccc5c4)cc3n2)CC1)c1cc(F)c(O)c(F)c1 [Example 112, 3,5-difluoro-4-hydroxy-N-({(1r,4r)-4-[6-(1H-pyrrolo[2,3-b]pyridin-5-yl)-2H-indazol-2-yl]cyclohexyl}methyl) benzamide, trifluoroacetate salt] | 220 |
| O=C(NC[C@H]1CC[C@H](n2cc3ccc(-c4cnoc4)cc3n2)CC1)c1cc(F)c(O)c(F)c1 [Example 111, 3,5-difluoro-4-hydroxy-N-({(1r,4r)-4-[6-(1,2-oxazol-4-yl)-2H-indazol-2-yl]cyclohexyl}methyl) benzamide] | 81 |
| O=C(NC[C@H]1CC[C@H](n2cc3ccc(-c4ncc(C5CC5)s4)cc3n2)CC1)c1cc(F)c(O)c(F)c1 [Example 105, N-({(1r,4r)-4-[6-(5-cyclopropyl-1,3-thiazol-2-yl)-2H-indazol-2-yl]cyclohexyl}methyl)-3,5-difluoro-4-hydroxybenzamide] | 370 |
| O=C(NC[C@]12CC[C@](n3cc4ccc(-c5cnccn5)cc4n3)(CC1)CC2)c1cc(F)c(O)c(F)c1 [Example 208, 3,5-difluoro-4-hydroxy-N-({4-[6-(pyrazin-2-yl)-2H-indazol-2-yl]bicyclo [2.2.2]octan-1-yl}methyl)benzamide] | 120 |
| Cn1cc(-c2ccc3nc([C@H]4CC[C@H](CNC(=O)c5cc(F)c(O)c(F)c5F)CC4)cn3c2)cn1 [Example 29, 2,3,5-trifluoro-4-hydroxy-N-({(1r,4r)-4-[6-(1-methyl-1H-pyrazol-4-yl)imidazo[1,2-a]pyridin-2-yl]cyclohexyl}methyl)benzamide] | 350 |
| O=C(NC[C@H]1CC[C@H](n2cc3cc(-c4cnn(C(F)F)c4)ccc3n2)CC1)c1cc(F)c(O)c(F)c1F [Example 161, N-{[(1r,4r)-4-{5-[1-(difluoromethyl)-1H-pyrazol-4-yl]-2H-indazol-2-yl}cyclo-hexyl]methyl}-2,3,5-trifluoro-4-hydroxy-benzamide] | 180 |
| COc1ccc(-c2ccc3cn([C@H]4CC[C@H](CNC(=O)c5cc(F)c(O)c(F)c5)CC4)nc3c2)cn1 [Example 108, 3,5-difluoro-4-hydroxy-N-({(1r,4r)-4-[6-(6-methoxy-pyridin-3-yl)-2H-indazol-2-yl]cyclohexyl}methyl) benzamide, trifluoroacetate salt] | 140 |
| O=C(NC[C@H]1CC[C@H](n2cc3cc(OCc4cccc(C(F)(F)F)n4)ncc3n2)CC1)c1cc(F)c(O)c(F)c1 [Example 33, 3,5-difluoro-4-hydroxy-N-{[(1r,4r)-4-(5-{[6-(trifluoromethyl)pyridin-2-yl]methoxy}-2H-pyrazolo[3,4-c]pyridin-2-yl)cyclohexyl]methyl}benzamide] | 380 |
| COc1cncc(-c2ccc3cn([C@H]4CC[C@H](CNC(=O)c5cc(F)c(O)c(F)c5)CC4)nc3c2)c1 [Example 120, 3,5-difluoro-4-hydroxy-N-({(1r,4r)-4-[6-(5-methoxypyridin-3-yl)-2H-indazol-2-yl]cyclohexyl}methyl) benzamide, trifluoroacetate salt] | 250 |
| O=C(NC[C@H]1CC[C@H](n2cc3ccc(-c4cnn5ccccc45)cc3n2)CC1)c1cc(F)c(O)c(F)c1 [Example 80, 3,5-difluoro-4-hydroxy-N-({(1r,4r)-4-[6-(pyrazolo[1,5-a]pyridin-3-yl)-2H-indazol-2-yl]cyclohexyl}methyl) benzamide, trifuoroacetate salt] | 200 |
| Cc1cn(-c2ccc3cn([C@H]4CC[C@H](CNC(=O)c5cc(F)c(O)c(F)c5F)CC4)nc3c2)cn1 [Example 163, 2,3,5-trifluoro-4-hydroxy-N-({(1r,4r)-4-[6-(4-methyl-1H-imidazol-1-yl)-2H-indazol-2-yl]cyclo-hexyl}methyl) benzamide] | 330 |
| Cn1cc(-c2ccc3cn([C@H]4CC[C@H](CNC(=O)c5cc(F)c(O)c(F)c5)CC4)nc3c2)ccc1=O [Example 104, 3,5-difluoro-4-hydroxy-N-({(1r,4r)-4-[6-(1-methyl-6-oxo-1,6-dihydropyridin-3-yl)-2H-indazol-2-yl]cyclohexyl}methyl) benzamide] | 370 |
| Cc1ncc(-c2ccc3cn([C@H]4CC[C@H](CNC(=O)c5cc(F)c(O)c(F)c5)CC4)nc3c2)s1 [Example 88, 3,5-difluoro-4-hydroxy-N-({(1r,4r)-4-[6-(2-methyl-1,3-thiazol-5-yl)-2H-indazol-2-yl]cyclohexyl}methyl)benzamide] | 170 |
| O=C(NC[C@]12CC[C@](c3nc(-c4ncc(C(F)(F)F)cn4)no3)(CC1)CC2)c1cc(F)c(O)c(F)c1 [Example 203, 3,5-difluoro-4-hydroxy-N-[(4-{3-[5-(trifluoromethyl)pyrimidin-2-yl]-1,2,4-oxadiazol-5-yl}bicyclo[2.2.2]octan-1-yl)methyl]benzamide] | 98 |
| O=C(NC[C@H]1CC[C@H](n2cc3ccc(-c4csc5cncn45)cc3n2)CC1)c1cc(F)c(O)c(F)c1 [Example 84, 3,5-difluoro-4-hydroxy-N-({(1r,4r)-4-[6-(imidazo[5,1-b][1,3]thiazol-3-yl)-2H-indazol-2-yl]cyclohexyl}methyl) benzamide, trifluoroacetate salt] | 390 |
| O=C(NC[C@]12CC[C@](n3cc4ccc(-c5ncccn5)cc4n3)(CC1)CC2)c1cc(F)c(O)c(F)c1 [Example 207, 3,5-difluoro-4-hydroxy-N-({4-[6-(pyrimidin-2-yl)-2H-indazol-2-yl]bicyclo [2.2.2]octan-1-yl}methyl)benzamide] | 140 |
| O=C(NC[C@H]1CC[C@H](n2cc3ccc(-n4cccn4)cc3n2)CC1)c1cc(F)c(O)c(F)c1F [Example 158, 2,3,5-trifluoro-4-hydroxy-N-({(1r,4r)-4-[6-(1H-pyrazol-1-yl)-2H-indazol-2-yl]cyclohexyl}methyl) benzamide, trifluoroacetate salt] | 190 |
